# Counter-ions that a name gives are not always drawn.
# How the values were obtained:
# [1] = test system: MLKL phosphorylation in HT29-L23 human colorectal adenocarcinoma cells; test: MLKL Phosphorylation High-Content Assay; assay type: cell-based; details: Homo sapiens, 6 h, necroptosis induced with TNFα, SMAC mimetic and Z-VAD, read-out: pMLKL (IC50)
# Method in brief: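 HT29-L23 cells pretreated 30 min at 37 °C with compound (6.25 to 0.106 μM final), then necroptosis induced with TNFα 35 ng/mL, SMAC mimetic 700 nM and Z-VAD 140 nM for 6 h. Fixed cells immunostained for MLKL pS358 and imaged; IC50 and Ymax from 4-parameter logistic fit.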
# [2] = biological target: His-GST-TVMV-hRIPK1(1-324) (Homo sapiens (Human), UniProt Q13546); test: RIPK1 HTRF Binding Assay; details: HTRF binding, 1 h at rt; read-out: RIPK1 (IC50)
# Method in brief: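 HTRF probe-displacement binding: 1 nM His-GST-TVMV-hRIPK1(1-324) (baculovirus construct), 90.6 nM probe, 0.2 nM anti-GST-Tb in 20 mM HEPES, 10 mM MgCl2, 0.015% Brij-35, 4 mM DTT, 0.05 mg/mL BSA. Incubated 1 h at rt; FRET 520/495 nm ratio, inhibition relative to DMSO-only wells.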
# Sequence of His-GST-TVMV-hRIPK1(1-324) (Q13546 1-324): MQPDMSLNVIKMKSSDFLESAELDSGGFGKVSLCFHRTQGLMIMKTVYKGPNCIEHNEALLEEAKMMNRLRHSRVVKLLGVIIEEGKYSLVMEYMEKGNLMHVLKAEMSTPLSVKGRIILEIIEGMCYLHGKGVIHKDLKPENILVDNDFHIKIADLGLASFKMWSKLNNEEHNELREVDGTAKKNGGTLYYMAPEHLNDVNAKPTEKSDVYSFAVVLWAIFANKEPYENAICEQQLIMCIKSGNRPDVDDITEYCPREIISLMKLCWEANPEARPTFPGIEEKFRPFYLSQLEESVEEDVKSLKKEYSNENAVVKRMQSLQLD
SMILES,IC50 [1] [nM],IC50 [2] [nM]
"CC(=O)Nc1cn2nc(-c3cc(C(=O)NCc4cccc(F)c4OC4C[C@@H](C)O[C@@H](C)C4)c(C)nc3C)ccc2n1 (stereo partly drawn) [Example 63, N-[(2-{[(2R,6S)-2,6-dimethyloxan-4-yl]oxy}-3-fluorophenyl)methyl]-5-{2-acetamidoimidazo[1,2-b]pyridazin-6-yl}-2,6-dimethylpyridine-3-carboxamide]",340,149
"CC(=O)Nc1cn2nc(-c3cc(C(=O)NCc4cc(F)cc(F)c4OC4CC(C)OC(C)C4)c(C)nc3C)ccc2n1 (centres unmarked) [Example 64, N-({2-[(2,6-dimethyloxan-4-yl)oxy]-3,5-difluorophenyl}methyl)-5-{2-acetamidoimidazo[1,2-b]pyridazin-6-yl}-2,6-dimethylpyridine-3-carboxamide]",45,49
"CC(=O)Nc1cn2nc(-c3cc(C(=O)NCc4ncccc4OCC(F)(F)F)c(C)nc3C)ccc2n1 [Example 65, 5-{2-acetamidoimidazo[1,2-b]pyridazin-6-yl}-2,6-dimethyl-N-{[3-(2,2,2-trifluoroethoxy)pyridin-2-yl]methyl}pyridine-3-carboxamide]",374,44
"[2H]C([2H])(NC(=O)c1cc(-c2ccc3nc(NC(C)=O)cn3n2)c(C)nc1C)c1cc(F)cc(F)c1OC1CCOCC1 [Example 66, N-{[3,5-difluoro-2-(oxan-4-yloxy)phenyl](deutero)methyl}-5-{2-acetamidoimidazo[1,2-b]pyridazin-6-yl}-2,6-dimethylpyridine-3-carboxamide]",8,9
"[2H]C([2H])([2H])[C@@H](NC(=O)c1cc(-c2ccc3nc(NC(C)=O)cn3n2)c(C)nc1C)c1cc(C(F)(F)F)ccc1F [Example 67, 5-{2-acetamidoimidazo[1,2-b]pyridazin-6-yl}-N-[(1R)-1-[2-fluoro-5-(trifluoromethyl)phenyl](2,2,2-deutero)ethyl]-2,6-dimethylpyridine-3-carboxamide]",14,14
"CC(=O)Nc1cn2nc(-c3cc(C(=O)NCc4ccccc4OCC(F)(F)F)c(C)nc3C)ccc2n1 [Example 68, 5-{2-acetamidoimidazo[1,2-b]pyridazin-6-yl}-2,6-dimethyl-N-{[2-(2,2,2-trifluoroethoxy)phenyl]methyl}pyridine-3-carboxamide]",45,5
"CC(=O)Nc1cn2nc(-c3cc(C(=O)N[C@H](C)c4cc(C(F)(F)F)ccc4F)c(C)nc3C)ccc2n1 [Example 69, 5-{2-acetamidoimidazo[1,2-b]pyridazin-6-yl}-N-[(1R)-1-[2-fluoro-5-(trifluoromethyl)phenyl]ethyl]-2,6-dimethylpyridine-3-carboxamide]",23,15
"[2H]C([2H])([2H])[C@@H](NC(=O)c1cc(-c2ccc3nc(NC(C)=O)cn3n2)c(C)nc1C)c1cc(OC(F)(F)F)ccc1F [Example 70, 5-{2-acetamidoimidazo[1,2-b]pyridazin-6-yl}-N-[(1R)-1-[2-fluoro-5-(trifluoromethoxy)phenyl](2,2,2-deutero)ethyl]-2,6-dimethylpyridine-3-carboxamide]",9,9
"CC(=O)Nc1cn2nc(-c3cc(C(=O)N[C@H](C)c4cc(OC(F)(F)F)ccc4F)c(C)nc3C)ccc2n1 [Example 71, 5-{2-acetamidoimidazo[1,2-b]pyridazin-6-yl}-N-[(1R)-1-[2-fluoro-5-(trifluoromethoxy)phenyl]ethyl]-2,6-dimethylpyridine-3-carboxamide]",13,5
"CC(=O)Nc1cn2nc(-c3cc(C(=O)NCc4cc(F)ccc4OCC(F)(F)F)c(C)nc3C)ccc2n1 [Example 72, 5-{2-acetamidoimidazo[1,2-b]pyridazin-6-yl}-N-{[5-fluoro-2-(2,2,2-trifluoroethoxy)phenyl]methyl}-2,6-dimethylpyridine-3-carboxamide, TFA]",30,17

# — patent US11440913B2, “Aminoimidazopyridazines as kinase inhibitors” (BRISTOL-MYERS SQUIBB COMPANY, priority 2017, dated 2022)
